In ChEMBL document CHEMBL3885881, “DrugMatrix”:

Species on record: Rattus norvegicus
Assay: DrugMatrix - Regimen: Daily Repeat
Type: toxicity, organism-based, Sprague-Dawley
Set-up: regimen Daily Repeat, gender Male, age 6-8 weeks
Details: in vivo, po, route oral GAVAGE, vehicle .5 % CMC; for ABSOLUTE BASOPHIL / ABSOLUTE EOSINOPHIL / ABSOLUTE LYMPHOCYTE / ABSOLUTE MONOCYTE / ABSOLUTE SEGMENTED NEUTROPHIL / BASOPHIL / EOSINOPHIL / ERYTHROCYTE COUNT / HEMATOCRIT / HEMOGLOBIN / LEUKOCYTE COUNT / LYMPHOCYTE / MEAN CORPUSCULAR HEMOGLOBIN / MEAN CORPUSCULAR HEMOGLOBIN CONCENTRATION / MEAN CORPUSCULAR VOLUME / MONOCYTE / NEUTROPHIL / NUCLEATED RED BLOOD CELLS / PLATELET COUNT: tissue Blood; for ALANINE AMINOTRANSFERASE / ALBUMIN / ALKALINE PHOSPHATASE / ASPARTATE AMINOTRANSFERASE / BLOOD UREA NITROGEN / CARBON DIOXIDE / CHLORIDE / CHOLESTEROL / CREATINE PHOSPHOKINASE / CREATININE / GLUCOSE / LACTATE DEHYDROGENASE / LIPASE / PHOSPHORUS / POTASSIUM / SODIUM / TOTAL BILIRUBIN / TOTAL PROTEIN / URIC ACID: tissue Plasma
[1] = 50 mg/kg, 72 h, dose level Low, time 3 day
[2] = 50 mg/kg, 120 h, dose level Low, time 5 day
[3] = 350 mg/kg, 72 h, dose level High, time 3 day
[4] = 350 mg/kg, 120 h, dose level High, time 5 day

In the case of `Cc1cccc(C)c1OCC(C)N` (configuration not stated) [MEXILETINE], the “ABSOLUTE BASOPHIL” value [1] is reported as 0 CELLS/uL, the “ABSOLUTE EOSINOPHIL” value [1] is reported as 76.67 CELLS/uL and the “ABSOLUTE LYMPHOCYTE” value [1] is reported as 11625.67 CELLS/uL. For the same compound, the “ABSOLUTE MONOCYTE” value [1] was 164.33 CELLS/uL, the “ABSOLUTE SEGMENTED NEUTROPHIL” value [1] was 733.33 CELLS/uL and the BASOPHIL [1] was 0%. For the same compound, the EOSINOPHIL [1] was 0.67%, the “ERYTHROCYTE COUNT” value [1] was 5.83 x10E6/uL and the HEMATOCRIT [1] was 36.67%. The HEMOGLOBIN [1] was 13.2 G/DL, the “LEUKOCYTE COUNT” value [1] was 12.6 x10E3/uL and the LYMPHOCYTE [1] was 92.33%. The “MEAN CORPUSCULAR HEMOGLOBIN” value [1] was 22.63 pg, the “MEAN CORPUSCULAR HEMOGLOBIN CONCENTRATION” value [1] was 36 G/DL and the “MEAN CORPUSCULAR VOLUME” value [1] was 62.9 fL. The MONOCYTE [1] was 1.33%, the NEUTROPHIL [1] was 5.67% and the “NUCLEATED RED BLOOD CELLS” value [1] was 0 /100WBC. For the same compound, the “PLATELET COUNT” value [1] was 1579.67 x10E3/uL, the “ALANINE AMINOTRANSFERASE” value [1] was 39.67 u/L and the ALBUMIN [1] was 4.47 G/DL. For the same compound, the “ALKALINE PHOSPHATASE” value [1] was 347.33 u/L, the “ASPARTATE AMINOTRANSFERASE” value [1] was 70.33 u/L and the “BLOOD UREA NITROGEN” value [1] was 15 mg/dL. For the same compound, the “CARBON DIOXIDE” value [1] was 26.67 mmol/L, the CHLORIDE [1] was 103.33 MEQ/L and the CHOLESTEROL [1] was 73 mg/dL. The “CREATINE PHOSPHOKINASE” value [1] was 249.33 u/L, the CREATININE [1] was 0.18 mg/dL and the GLUCOSE [1] was 168.67 mg/dL. For the same compound, the “LACTATE DEHYDROGENASE” value [1] was 90 u/L, the LIPASE [1] was 9 u/L and the PHOSPHORUS [1] was 13.23 mg/dL. The POTASSIUM [1] was 6.67 MEQ/L, the SODIUM [1] was 144.43 MEQ/L and the “TOTAL BILIRUBIN” value [1] was 0.2 mg/dL. The “TOTAL PROTEIN” value [1] was 6 G/DL, the “URIC ACID” value [1] was 2.37 mg/dL and the “ABSOLUTE BASOPHIL” value [2] was 0 CELLS/uL. For the same compound, the “ABSOLUTE EOSINOPHIL” value [2] was 311.67 CELLS/uL, the “ABSOLUTE LYMPHOCYTE” value [2] was 17277 CELLS/uL and the “ABSOLUTE MONOCYTE” value [2] was 358.33 CELLS/uL. For the same compound, the “ABSOLUTE SEGMENTED NEUTROPHIL” value [2] was 1686.33 CELLS/uL, the BASOPHIL [2] was 0% and the EOSINOPHIL [2] was 1.67%. For the same compound, the “ERYTHROCYTE COUNT” value [2] was 5.61 x10E6/uL, the HEMATOCRIT [2] was 35.37% and the HEMOGLOBIN [2] was 13.43 G/DL. The “LEUKOCYTE COUNT” value [2] was 19.63 x10E3/uL, the LYMPHOCYTE [2] was 88% and the “MEAN CORPUSCULAR HEMOGLOBIN” value [2] was 23.97 pg. For the same compound, the “MEAN CORPUSCULAR HEMOGLOBIN CONCENTRATION” value [2] was 38 G/DL, the “MEAN CORPUSCULAR VOLUME” value [2] was 63.13 fL and the MONOCYTE [2] was 1.67%. The NEUTROPHIL [2] was 8.67%, the “NUCLEATED RED BLOOD CELLS” value [2] was 0 /100WBC and the “PLATELET COUNT” value [2] was 1342.33 x10E3/uL. The “ALANINE AMINOTRANSFERASE” value [2] was 52 u/L, the ALBUMIN [2] was 4.23 G/DL and the “ALKALINE PHOSPHATASE” value [2] was 414.33 u/L. The “ASPARTATE AMINOTRANSFERASE” value [2] was 89 u/L, the “BLOOD UREA NITROGEN” value [2] was 18.67 mg/dL and the “CARBON DIOXIDE” value [2] was 24.33 mmol/L. For the same compound, the CHLORIDE [2] was 106.67 MEQ/L, the CHOLESTEROL [2] was 62 mg/dL and the “CREATINE PHOSPHOKINASE” value [2] was 325.67 u/L. For the same compound, the CREATININE [2] was 0.19 mg/dL, the GLUCOSE [2] was 163.67 mg/dL and the “LACTATE DEHYDROGENASE” value [2] was 469 u/L. It also gave an LIPASE [2] of 8.67 u/L, a PHOSPHORUS [2] of 12.77 mg/dL and a POTASSIUM [2] of 6.24 MEQ/L. The SODIUM [2] was 144.53 MEQ/L, the “TOTAL BILIRUBIN” value [2] was 0.3 mg/dL and the “TOTAL PROTEIN” value [2] was 6.4 G/DL. For the same compound, the “URIC ACID” value [2] was 1.83 mg/dL, the “ABSOLUTE BASOPHIL” value [3] was 0 CELLS/uL and the “ABSOLUTE EOSINOPHIL” value [3] was 77.33 CELLS/uL. The “ABSOLUTE LYMPHOCYTE” value [3] was 8910.33 CELLS/uL, the “ABSOLUTE MONOCYTE” value [3] was 236 CELLS/uL and the “ABSOLUTE SEGMENTED NEUTROPHIL” value [3] was 643 CELLS/uL. The BASOPHIL [3] was 0%, the EOSINOPHIL [3] was 0.67% and the “ERYTHROCYTE COUNT” value [3] was 6.04 x10E6/uL. For the same compound, the HEMATOCRIT [3] was 38.2%, the HEMOGLOBIN [3] was 14.37 G/DL and the “LEUKOCYTE COUNT” value [3] was 9.87 x10E3/uL. The LYMPHOCYTE [3] was 90.33%, the “MEAN CORPUSCULAR HEMOGLOBIN” value [3] was 23.87 pg and the “MEAN CORPUSCULAR HEMOGLOBIN CONCENTRATION” value [3] was 37.63 G/DL. The “MEAN CORPUSCULAR VOLUME” value [3] was 63.37 fL, the MONOCYTE [3] was 2.33% and the NEUTROPHIL [3] was 6.67%. The “NUCLEATED RED BLOOD CELLS” value [3] was 0.33 /100WBC, the “PLATELET COUNT” value [3] was 1205.33 x10E3/uL and the “ALANINE AMINOTRANSFERASE” value [3] was 60.67 u/L. For the same compound, the ALBUMIN [3] was 5.13 G/DL, the “ALKALINE PHOSPHATASE” value [3] was 464.67 u/L and the “ASPARTATE AMINOTRANSFERASE” value [3] was 73.67 u/L. The “BLOOD UREA NITROGEN” value [3] was 13 mg/dL, the “CARBON DIOXIDE” value [3] was 27.33 mmol/L and the CHLORIDE [3] was 102 MEQ/L. For the same compound, the CHOLESTEROL [3] was 86 mg/dL, the “CREATINE PHOSPHOKINASE” value [3] was 277.67 u/L and the CREATININE [3] was 0.21 mg/dL. The GLUCOSE [3] was 139.67 mg/dL, the “LACTATE DEHYDROGENASE” value [3] was 118 u/L and the LIPASE [3] was 9 u/L. For the same compound, the PHOSPHORUS [3] was 10.8 mg/dL, the POTASSIUM [3] was 5.61 MEQ/L and the SODIUM [3] was 145.8 MEQ/L. The “TOTAL BILIRUBIN” value [3] was 0.23 mg/dL, the “TOTAL PROTEIN” value [3] was 7.07 G/DL and the “URIC ACID” value [3] was 0.77 mg/dL. The “ABSOLUTE BASOPHIL” value [4] was 0 CELLS/uL, the “ABSOLUTE EOSINOPHIL” value [4] was 203 CELLS/uL and the “ABSOLUTE LYMPHOCYTE” value [4] was 12514 CELLS/uL. For the same compound, the “ABSOLUTE MONOCYTE” value [4] was 136 CELLS/uL, the “ABSOLUTE SEGMENTED NEUTROPHIL” value [4] was 747 CELLS/uL and the BASOPHIL [4] was 0%. The EOSINOPHIL [4] was 1.5%, the “ERYTHROCYTE COUNT” value [4] was 6.13 x10E6/uL and the HEMATOCRIT [4] was 38%. For the same compound, the HEMOGLOBIN [4] was 14.05 G/DL, the “LEUKOCYTE COUNT” value [4] was 13.6 x10E3/uL and the LYMPHOCYTE [4] was 92%. For the same compound, the “MEAN CORPUSCULAR HEMOGLOBIN” value [4] was 22.9 pg, the “MEAN CORPUSCULAR HEMOGLOBIN CONCENTRATION” value [4] was 37 G/DL and the “MEAN CORPUSCULAR VOLUME” value [4] was 62.05 fL. The MONOCYTE [4] was 1%, the NEUTROPHIL [4] was 5.5% and the “NUCLEATED RED BLOOD CELLS” value [4] was 0 /100WBC. The “PLATELET COUNT” value [4] was 1422.5 x10E3/uL, the “ALANINE AMINOTRANSFERASE” value [4] was 55 u/L and the ALBUMIN [4] was 4.35 G/DL. For the same compound, the “ALKALINE PHOSPHATASE” value [4] was 464 u/L, the “ASPARTATE AMINOTRANSFERASE” value [4] was 93.5 u/L and the “BLOOD UREA NITROGEN” value [4] was 15 mg/dL. The “CARBON DIOXIDE” value [4] was 24 mmol/L, the CHLORIDE [4] was 105 MEQ/L and the CHOLESTEROL [4] was 59 mg/dL. For the same compound, the “CREATINE PHOSPHOKINASE” value [4] was 283.5 u/L, the CREATININE [4] was 0.22 mg/dL and the GLUCOSE [4] was 182.5 mg/dL. For the same compound, the “LACTATE DEHYDROGENASE” value [4] was 152 u/L, the LIPASE [4] was 8.5 u/L and the PHOSPHORUS [4] was 12.7 mg/dL. For the same compound, the POTASSIUM [4] was 5.83 MEQ/L, the SODIUM [4] was 145.35 MEQ/L and the “TOTAL BILIRUBIN” value [4] was 0.2 mg/dL. For the same compound, the “TOTAL PROTEIN” value [4] was 6.4 G/DL and the “URIC ACID” value [4] was 2 mg/dL.
